Laboratory results from paper PMC5727262, “Molecular mechanism of K65 acetylation-induced attenuation of Ubc9 and the NDSM interaction” (Scientific Reports, 2017).
Peptide text beside a SMILES is read from it.

Tests used:
Ac-Ubc9K65 = biological target: T1, Ac-Ubc9K65 (Homo sapiens, UniProt P63279); assay: ITC binding of sumoylation-motif peptides to K65-acetylated Ubc9; settings: 25 °C, pH 8.0, 20 mM potassium phosphate, 100 mM NaCl, 1:1 binding stoichiometry assumed, triplicate measurements
T1 construct: made in house; host or cells: E. coli BL21 (DE3) with pAcKRS-3 and pCDF PylT-1-Ubc9 (amber codon at K65), fed acetyl-lysine
T1 sequence (P63279 2-158): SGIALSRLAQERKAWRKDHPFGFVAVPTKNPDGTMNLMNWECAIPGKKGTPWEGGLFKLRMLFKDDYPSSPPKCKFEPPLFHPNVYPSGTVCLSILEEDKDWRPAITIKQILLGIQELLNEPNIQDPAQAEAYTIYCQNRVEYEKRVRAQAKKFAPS
Description: (§1) ITC binding experiments were used to quantify the effect of Ubc9 acetylation on NDSM substrate binding (Fig. 2A). […] The dissociation constants for Elk1 and CBP were 70 and 57 μM, respectively (Fig. 2C and D), which were roughly similar to the dissociation constant of 56 μM obtained for the more acidic Calpain2 (Fig. 2E). Contrary to our expectations, RanGAP1 bound more strongly than the NDSMs with a dissociation constant of 13 μM. […] Similarly, not every acidic residue from the NDSM contributed equally to Ubc9 binding and even positions ×1 and ×2 could be potentially deciding factors. We exploited the long acidic stretch of Calpain2 in additional studies described below to explain this phenomenon. […] The observed switching from exothermic versus endothermic binding of the NDSM versus SM containing peptides is surprising. We speculate that the long negatively charged tail of NDSM may interact with Ubc9 in such a way that it free up more Ubc9-bound water molecules, resulting in an overall entropy increase. More work need to be done to fully understand its implication in binding mechanism.
(§2) Figure 2 Effect of K65 acetylation on Ubc9 affinity for substrates. (A) Summary of the thermodynamic parameters obtained from triplicate isothermal titration calorimetry (ITC) measurements. Representative ITC thermograms for Ubc9 binding to the RanGAP1 (B), Elk1 (C), CBP (D), and Calpain2 (E) peptides. The heat absorbed (or released) post-injection, after correcting for the heat of dilution, is shown in lower panels. […]
(§3) The ITC experiments were repeated twice at 25 °C by a controlled 2 μl addition of peptide to 200 μl of WT or Ac-Ubc9K65 in pH 8.0 buffer containing 20 mM potassium phosphate and 100 mM NaCl using an iTC200 calorimeter (GE Healthcare, Parsippany, NJ, USA). The first data point of each experiment was excluded from analysis and the baseline-corrected data were analyzed using Origin 7.0 software assuming 1:1 binding stoichiometry.

Ubc9 (WT) = biological target: T2, Ubc9 (WT) (Homo sapiens, UniProt P63279); assay: ITC binding of sumoylation-motif peptides to WT Ubc9; settings: 25 °C, pH 8.0, 20 mM potassium phosphate, 100 mM NaCl, 1:1 binding stoichiometry assumed, triplicate measurements
T2 construct: made in house; host or cells: E. coli (stated as BL21 (DE3) for the acetylated variant)
T2 sequence (P63279 whole entry): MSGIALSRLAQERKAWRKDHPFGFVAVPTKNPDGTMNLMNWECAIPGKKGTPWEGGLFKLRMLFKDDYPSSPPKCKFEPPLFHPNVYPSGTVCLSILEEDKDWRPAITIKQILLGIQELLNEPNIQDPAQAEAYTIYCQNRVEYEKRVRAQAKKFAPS
Description: as §1, §2, §3

| Kd (Ac-Ubc9K65) [µM] | Kd (Ubc9 (WT)) [µM] | SMILES |
| --- | --- | --- |
| 105 | 57.4 ± 2.8 | CC(C)[C@H](NC(=O)[C@H](CCC(=O)O)NC(=O)[C@@H](NC(=O)[C@H](CCCCN)NC(=O)[C@@H](NC(=O)[C@H](CCC(=O)O)NC(=O)[C@@H]1CCCN1C(=O)[C@H](CCCCN)NC(=O)[C@H](CCCCN)NC(=O)[C@H](CCC(=O)O)NC(=O)[C@@H](N)CC(=O)O)C(C)C)C(C)C)C(=O)N[C@@H](CCCCN)C(=O)N[C@@H](CCC(=O)O)C(=O)N[C@@H](CCC(=O)O)C(=O)N[C@@H](CCC(=O)O)C(=O)N[C@@H](CCC(=O)O)C(=O)N[C@@H](CO)C(=O)N[C@@H](CO)C(=O)N[C@@H](CO)C(=O)N[C@@H](CC(N)=O)C(=O)O [CBP] (H-DEKKPEVKVEVKEEEESSSN-OH) |
| 80.3 ± 2.7 | 55.8 ± 3.3 | CC[C@H](C)[C@H](NC(=O)[C@H](CC(C)C)NC(=O)[C@H](Cc1ccc(O)cc1)NC(=O)[C@H](CCC(N)=O)NC(=O)[C@@H]1CCCN1)C(=O)N[C@@H](CCCCN)C(=O)N[C@@H](CC(C)C)C(=O)N[C@@H](CCC(=O)O)C(=O)N[C@@H](CCC(=O)O)C(=O)N[C@@H](CCC(=O)O)C(=O)N[C@@H](CC(=O)O)C(=O)N[C@@H](CCC(=O)O)C(=O)N[C@@H](CC(=O)O)C(=O)N[C@@H](CCC(=O)O)C(=O)N[C@@H](CCC(=O)O)C(=O)N[C@@H](CC(=O)O)C(=O)NCC(=O)N[C@@H](CCC(=O)O)C(=O)N[C@@H](CO)C(=O)NCC(=O)N[C@@H](CS)C(=O)N[C@H](C(=O)O)[C@@H](C)O [Calpain2] (H-PQYLIKLEEEDEDEEDGESGCT-OH) |
| 103 | 70.2 ± 1.3 | CC(C)C[C@H](NC(=O)[C@H](CCC(=O)O)NC(=O)[C@H](CCC(=O)O)NC(=O)[C@H](CCCCN)NC(=O)[C@@H]1CCCN1C(=O)CNC(=O)[C@H](CCC(=O)O)NC(=O)[C@@H](NC(=O)[C@H](CCCCN)NC(=O)[C@@H](NC(=O)[C@H](CCC(=O)O)NC(=O)[C@@H]1CCCN1C(=O)[C@@H]1CCCN1C(=O)[C@H](CC(C)C)NC(=O)[C@H](C)NC(=O)[C@@H](N)CCCNC(=N)N)C(C)C)C(C)C)C(=O)N[C@@H](CCC(=O)O)C(=O)N[C@H](C(=O)N[C@@H](C)C(=O)NCC(=O)O)C(C)C [Elk1] (H-RALPPEVKVEGPKEELEVAG-OH) |
| 13.5 ± 2.2 | 13.5 ± 0.9 | CC[C@H](C)[C@H](NC(=O)[C@H](C)NC(=O)[C@H](CCCCN)NC(=O)[C@@H](NC(=O)[C@H](CCCCN)NC(=O)[C@H](CC(=O)O)NC(=O)[C@H](CCC(=O)O)NC(=O)[C@H](CO)NC(=O)[C@H](CCCCN)NC(=O)[C@H](CC(C)C)NC(=O)[C@H](CC(C)C)NC(=O)CNC(=O)[C@H](CCSC)NC(=O)[C@H](Cc1c[nH]cn1)NC(=O)[C@@H](NC(=O)[C@@H](N)CC(C)C)C(C)C)C(C)C)C(=O)N[C@@H](C)C(=O)N[C@@H](CC(N)=O)C(=O)N[C@@H](CC(C)C)C(=O)N[C@@H](Cc1ccc(O)cc1)C(=O)O [RanGAP1, reference compound] (H-LVHMGLLKSEDKVKAIANLY-OH) |
